# Biological target: BRD4 protein (Homo sapiens, UniProt O60885)
# Experiment: FRET assay, half maximal inhibitory concentration (IC50)
# Format: binding
# Details: BRD4 protein 50 nM, Biotin-H4KAc4 peptide 12.5 nM; List of Classification
# Method in brief: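 Acetylated histone H4 peptide binding (biotin-H4KAc4, 12.5 nM final) to BRD4 (50 nM final) detected by TR-FRET between streptavidin cryptate (2.4 nM) and GST-XL665 antibody (10 nM) in KF/BSA. Buffer: HEPES pH 7.5, NaCl, CHAPS. Compound dilutions from 50 μM in 12.5% DMSO were preincubated with protein for 30 min. Variable-slope IC50.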
row,SMILES,IC50 [nM]
1,"Cc1ccnc(N2CCOCC2)c1C(=O)Nc1ccc2nc(O)cc(C)c2c1 [Compound-138, N-(2-hydroxy-4-methyl-6-quinolyl)-4-methyl-2-morpholino-pyridine-3-carboxamide]",1000 to 10000
2,"Cc1cc(O)nc2ccc(NC(=O)c3cc(C(F)(F)F)cnc3N3CCOCC3)cc12 [Compound-139, N-(2-hydroxy-4-methyl-6-quinolyl)-2-morpholino-5-(trifluoromethyl)pyridine-3-carboxamide]",< 200
3,"Cc1cc(O)nc2ccc(NC(=O)c3cc(Cl)cnc3N3CCOCC3)cc12 [Compound-140, 5-chloro-N-(2-hydroxy-4-methyl-6-quinolyl)-2-morpholino-pyridine-3-carboxamide]",< 200
4,"Cc1cc(O)nc2ccc(NC(=O)c3cccnc3N3CCOC4CNCC43)cc12 (centres unmarked) [Compound-142, 2-(3,4a,5,6,7,7a-hexahydro-2H-pyrrolo[3,4-b][1,4]oxazin-4-yl)-N-(2-hydroxy-4-methyl-6-quinolyl)pyridine-3-carboxamide]",< 200
5,"Cc1cc(O)nc2ccc(NC(=O)c3cccnc3N3CCOC4COCC43)cc12 (centres unmarked) [Compound-143, 2-(2,3,4a,5,7,7a-hexahydrofuro[3,4-b][1,4]oxazin-4-yl)-N-(2-hydroxy-4-methyl-6-quinolyl)pyridine-3-carboxamide]",500 to 1000
6,"Cc1cc(O)nc2ccc(NC(=O)c3cccnc3N3C4CCC3COC4)cc12 [Compound-144, N-(2-hydroxy-4-methyl-6-quinolyl)-2-(3-oxa-8-azabicyclo[3.2.1]octan-8-yl)pyridine-3-carboxamide]",< 200
7,"Cc1cc(O)nc2ccc(NC(=O)c3cccnc3N3CCOCC3CO)cc12 (centres unmarked) [Compound-145, 2-[3-(hydroxymethyl)morpholin-4-yl]-N-(2-hydroxy-4-methyl-6-quinolyl)pyridine-3-carboxamide]",< 200
8,"Cc1cc(O)nc2ccc(NC(=O)c3cccnc3N3CCC(F)(F)CC3)cc12 [Compound-146, 2-(4,4-difluoro-1-piperidyl)-N-(2-hydroxy-4-methyl-6-quinolyl)pyridine-3-carboxamide]",< 200
9,"Cc1cc(O)nc2ccc(NC(=O)c3cccnc3N3CCn4ccnc4C3)cc12 [Compound-147, 2-(6,8-dihydro-5H-imidazo[1,2-a]pyrazin-7-yl)-N-(2-hydroxy-4-methyl-6-quinolyl)pyridine-3-carboxamide]",500 to 1000
10,"COc1cc(O)nc2ccc(NC(=O)c3cccnc3N3CCOCC3)cc12 [Compound-149, N-(2-hydroxy-4-methoxy-6-quinolyl)-2-morpholino-pyridine-3-carboxamide]",500 to 1000
11,"Cc1cc(O)nc2ccc(NC(=O)c3cc(-c4cnoc4)ccc3N3CCOCC3)cc12 [Compound-151, N-(2-hydroxy-4-methyl-6-quinolyl)-5-isoxazol-4-yl-2-morpholino-benzamide]",< 200
12,"Cc1noc(C)c1-c1ccc(N2CCOCC2)c(C(=O)Nc2ccc3nc(O)cc(C)c3c2)c1 [Compound-152, 5-(3,5-dimethylisoxazol-4-yl)-N-(2-hydroxy-4-methyl-6-quinolyl)-2-morpholino-benzamide]",< 200
13,"Cc1cc2nc(O)cc(C)c2cc1NC(=O)c1cc(-c2cnn(C)c2)ccc1N1CCOCC1 [Compound-154, N-(2-hydroxy-4,7-dimethyl-6-quinolyl)-5-(1-methylpyrazol-4-yl)-2-morpholino-benzamide]",< 200
14,"Cc1cc2nc(O)cc(C)c2cc1NC(=O)c1cc(-c2c(C)noc2C)ccc1N1CCOCC1 [Compound-155, 5-(3,5-dimethylisoxazol-4-yl)-N-(2-hydroxy-4,7-dimethyl-6-quinolyl)-2-morpholino-benzamide]",< 200
15,"Cc1cc(O)nc2c(C)cc(NC(=O)c3cc(-c4ccoc4)ccc3N3CCOCC3)cc12 [Compound-157, 5-(3-furyl)-N-(2-hydroxy-4,8-dimethyl-6-quinolyl)-2-morpholino-benzamide]",< 200
16,"COc1cc2nc(O)cc(C)c2cc1NC(=O)c1cc(-c2cnn(C)c2)ccc1N1CCOCC1 [Compound-159, N-(2-hydroxy-7-methoxy-4-methyl-6-quinolyl)-5-(1-methylpyrazol-4-yl)-2-morpholino-benzamide]",< 200
17,"COc1cc2nc(O)cc(C)c2cc1NC(=O)c1cc(-c2ccoc2)ccc1N1CCOCC1 [Compound-160, 5-(3-furyl)-N-(2-hydroxy-7-methoxy-4-methyl-6-quinolyl)-2-morpholino-benzamide]",500 to 1000
18,"COc1cc2nc(O)cc(C)c2cc1NC(=O)c1cc(-c2c(C)noc2C)ccc1N1CCOCC1 [Compound-161, 5-(3,5-dimethylisoxazol-4-yl)-N-(2-hydroxy-7-methoxy-4-methyl-6-quinolyl)-2-morpholino-benzamide]",< 200
19,"Cc1cc2nc(O)cc(C)c2cc1NC(=O)c1cc(-c2cnoc2)ccc1N1CCOCC1 [Compound-163, N-(2-hydroxy-4,7-dimethyl-6-quinolyl)-5-isoxazol-4-yl-2-morpholino-benzamide]",< 200
20,"Cc1cc2[nH]c(=O)cc(C)c2cc1NC(=O)c1cc(C#N)ncc1N1CCOCC1 [Compound-164, 2-cyano-N-(4,7-dimethyl-2-oxo-1H-quinolin-6-yl)-5-morpholino-pyridine-4-carboxamide]",< 200
21,"CC(C)c1cc(O)nc2ccc(NC(=O)c3cc(S(=O)(=O)N(C)C)ccc3N3CCCC3)cc12 [Compound-165, 5-(dimethylsulfamoyl)-N-(2-hydroxy-4-isopropyl-6-quinolyl)-2-pyrrolidin-1-yl-benzamide]",< 200
22,"Cc1cc(O)nc2ccc(NC(=O)c3cc(-c4cnn(C)c4)ccc3N3CCOCC3)cc12 [Compound-166, N-(2-hydroxy-4-methyl-6-quinolyl)-5-(1-methylpyrazol-4-yl)-2-morpholino-benzamide]",< 200
23,"Cc1cc(O)nc2ccc(NC(=O)c3cc(-c4ccoc4)ccc3N3CCOCC3)cc12 [Compound-167, 5-(3-furyl)-N-(2-hydroxy-4-methyl-6-quinolyl)-2-morpholino-benzamide]",< 200
24,"Cc1cc(O)nc2ccc(NC(=O)c3cc(C(C)O)ccc3N3CCOCC3)cc12 (centres unmarked) [Compound-168, N-(2-hydroxy-4-methylquinolin-6-yl)-5-(1-hydroxyethyl)-2-morpholinobenzamide]",< 200
25,"COc1cc(NC(=O)c2cc(-c3cnn(C)c3)cnc2N2CCOCC2)cc2c(C)cc(O)nc12 [Compound-169, N-(2-hydroxy-8-methoxy-4-methylquinolin-6-yl)-5-(1-methyl-1H-pyrazol-4-yl)-2-morpholinonicotinamide]",< 200
26,"COc1cc2nc(O)cc(C)c2cc1NC(=O)c1cc(-c2cnn(C)c2)cnc1N1CCOCC1 [Compound-170, N-(2-hydroxy-7-methoxy-4-methylquinolin-6-yl)-5-(1-methyl-1H-pyrazol-4-yl)-2-morpholinonicotinamide]",< 200

# Results, then the compound that gave them:
row,IC50 [nM],SMILES
1,< 200,"Cc1cc2nc(O)cc(C)c2cc1NC(=O)c1cc(-c2cnn(C)c2)cnc1N1CCOCC1 [Compound-171, N-(2-hydroxy-4,7-dimethylquinolin-6-yl)-5-(1-methyl-1H-pyrazol-4-yl)-2-morpholinonicotinamide]"
2,< 200,"Cc1cc(=O)[nH]c2ccc(NC(=O)c3cc(S(=O)(=O)N(C)C)ccc3N3CC[C@@H](F)C3)cc12 [Compound-172, (R)-5-(N,N-dimethylsulfamoyl)-2-(3-fluoropyrrolidin-1-yl)-N-(4-methyl-2-oxo-1,2-dihydroquinolin-6-yl)benzamide]"
3,< 200,"Cc1cc(=O)[nH]c2ccc(NC(=O)c3cc(S(=O)(=O)N(C)C)ccc3N3CC[C@H](F)C3)cc12 [Compound-173, (S)-5-(N,N-dimethylsulfamoyl)-2-(3-fluoropyrrolidin-1-yl)-N-(4-methyl-2-oxo-1,2-dihydroquinolin-6-yl)benzamide]"
4,500 to 1000,"Cc1cc(O)nc2ccc(NC(=O)c3cc(-c4ccoc4)cnc3N3CCOCC3)cc12 [Compound-174, 5-(furan-3-yl)-N-(2-hydroxy-4-methylquinolin-6-yl)-2-morpholinonicotinamide]"
5,< 200,"Cc1cc(O)nc2ccc(NC(=O)c3cc(-c4cnn(C)c4)cnc3N3CCOCC3)cc12 [Compound-175, N-(2-hydroxy-4-methylquinolin-6-yl)-5-(1-methyl-1H-pyrazol-4-yl)-2-morpholinonicotinamide]"
6,< 200,"Cc1cc(O)nc2ccc(NC(=O)c3cc(-c4cnoc4)cnc3N3CCOCC3)cc12 [Compound-176, N-(2-hydroxy-4-methylquinolin-6-yl)-5-(isoxazol-4-yl)-2-morpholinonicotinamide]"
7,< 200,"Cc1noc(C)c1-c1cnc(N2CCOCC2)c(C(=O)Nc2ccc3nc(O)cc(C)c3c2)c1 [Compound-177, 5-(3,5-dimethylisoxazol-4-yl)-N-(2-hydroxy-4-methylquinolin-6-yl)-2-morpholinonicotinamide]"
8,500 to 1000,"Cc1cc(O)nc2ccc(NC(=O)c3cc(-c4ccoc4)cnc3N3CC4(COC4)C3)cc12 [Compound-178, 5-(furan-3-yl)-N-(2-hydroxy-4-methylquinolin-6-yl)-2-(2-oxa-6-azaspiro[3.3]heptan-6-yl)nicotinamide]"
9,< 200,"Cc1cc(O)nc2c(C)cc(NC(=O)c3cc(-c4ccoc4)cnc3N3CCOCC3)cc12 [Compound-179, 5-(furan-3-yl)-N-(2-hydroxy-4,8-dimethylquinolin-6-yl)-2-morpholinonicotinamide]"
10,< 200,"Cc1nnc(-c2ccc(N3CCOCC3)c(C(=O)Nc3ccc4nc(O)cc(C)c4c3)c2)o1 [Compound-180, N-(2-hydroxy-4-methylquinolin-6-yl)-5-(5-methyl-1,3,4-oxadiazol-2-yl)-2-morpholinobenzamide]"
11,< 200,"Cc1cc(O)nc2ccc(NC(=O)c3cc(-c4nnn[nH]4)ccc3N3CCOCC3)cc12 [Compound-181, N-(2-hydroxy-4-methylquinolin-6-yl)-2-morpholino-5-(1H-tetrazol-5-yl)benzamide]"
12,< 200,"Cc1cc(O)nc2ccc(NC(=O)c3cc(C(=O)O)ccc3N3CCOCC3)cc12 [Compound-182, 3-(2-hydroxy-4-methylquinolin-6-ylcarbamoyl)-4-morpholinobenzoic acid]"
